Measured values published in paper PMC12267067, “Targeting GRPR for sex hormone-dependent cancer after loss of E-cadherin” (Nature, 2025).
No end group written: not given here.

What was measured:
[1] = tested on: mouse melanoma cell lines (1057, 1064, 1181, 1014); experiment: Cell growth (cell counting), mouse melanoma cell lines; assay type: cell-based; conditions: 48 h
Method: Six-well tissue-culture plates were seeded with 3 × 10^5 melanoma cells in complete medium. After 24 h, the medium was replaced by low-serum medium (0.5% for murine melanoma cell lines and 1% for human melanoma cells) and the cells were incubated for a further 18 h before stimulation with 10 nM GRP (4011670 bachem) and/or 1 µM RC (R9653, Sigma-Aldrich) for 48 h. The plates were trypsinized just after stimulation or 48 h later and the cells were counted. For the MTT assay, 10,000 cells were seeded per well in 96-well plates. After 24 h, cells were starved overnight and then treated with 10 nM GRP and/or 1 µM RC for 48 h in low-serum medium (0.5% FBS). Next, MTT (M5655, Sigma-Aldrich) was added to the wells to a final concentration of 0.5 mg ml^−1 and the plates were incubated for 3 h. The medium was removed and formazan crystals dissolved in 200 µl DMSO. The absorbance was read at 570 nm using a LUMIstar Omega […] (BMG Labtech). All growth experiments were done using three technical replicates and three biological replicates. For the clonogenic assay, six-well tissue-culture plates were seeded with 500 cells in complete medium. After 10 days (20 days for 1181), colonies were fixed with 4% PFA for 15 min and stained with 10% crystal violet in ethanol for 20 min and counted in images using ImageJ software. Experiments were done in triplicate.

[2] = tested on: mouse melanoma cell lines (1057, 1064, 1181, 1039, 1456, 1014); experiment: Matrigel invasion assay, mouse melanoma cells; assay type: cell-based; conditions: 24 h
Method: Matrigel invasion assays were done in transwell plates with 8.0-µm pores (353097, Falcon) coated with 100 µl of 200 µg ml^−1 Matrigel. Depending on the experiments, cells were seeded directly or 24 h after transfection in low-serum medium (0.5% FCS for murine cells and 1% for human cell lines) with 10 nM GRP, 1 µM RC-3095, and/or 1 µM IC 182,780, or in 10% FCS. Then, 24 hours after stimulation, inserts were washed with PBS and non-invading cells were removed. Cells in the inserts were fixed in methanol at −20 °C overnight. The inserts were rinsed and the membrane carefully removed using a sharp scalpel. The membrane was mounted in prolong glass DAPI (1.5 µg ml^−1). Assays were performed in triplicate and automatic counting of invading cells was done using an Image/Fiji macro (10.5281/zenodo.14509394). Sequences of siRNAs are given in Supplementary Table 11.

GRP: GRPR's natural agonist, endogenous ligand of GRPR (4011670 bachem) (VPLPAGGGTVLTKMYPRGNHWAVGHLM; not fully specified; ends and bridges not checked; UniProt P07492 24-50, looked up)
cell growth, GRPR-positive mouse lines ([1]; 1057 and 1064, 10 nM GRP and/or 1 µM RC, low serum 0.5%): promoted growth
cell growth, GRPR-negative mouse cells ([1]; 1181 and 1014, 10 nM GRP, low serum): had no effect
invasion (number of invading cells), GRPR-positive mouse lines ([2]; 1057 (also 1064, GRPR-transduced 1014 and 1181 for RC-3095), 10 nM GRP, 1 µM RC-3095 and/or 1 µM ICI, Matrigel 200 µg ml−1, 0.5% FCS): promoted invasion
invasion (number of invading cells), Grpr-negative mouse lines ([2]; 1181 male Ecad, 1039 female Ecad, 1456 male ΔEcad, 10 nM GRP and/or 1 µM ICI): but not in Ecad-positive (1181 male and 1039 female) or Ecad-negative male (1456) cells
